Data published in patent US20130338367A1, “PYRAZOLE DERIVATIVES AND PESTICIDES” (Nissan Chemical Industries, Ltd., priority 2011, published 2013).
Counter-ions that a name gives are not always drawn. Like-named read-outs stand apart in the source and are kept apart here.

Experiments:
Type in all cases: in vivo
Bemisia argentifolii = assay: Insecticidal Test on Bemisia argentifolii; settings: 120 h
Procedure: In styrol cups having an inner diameter of 7 cm, wet filter paper was laid, and kidney bean leaves cut to 3 cm were laid on the paper. 10% emulsifiable concentrates (or 10% wettable powders) of compounds of the present invention were diluted with water containing a spreader to obtain 500 ppm solutions. 2.5 ml of the solutions were sprayed from a rotary spray tower into the styrol cups (2.5 mg/cm^2). The leaves were dried in air, and adults of Bemisia argentifolii were released in the cups. The cups were closed and placed in an incubator at 25° C. 5 Days after, dead insects were counted, and the mortality was calculated by using the same equation as in Test Example 1. The test was carried out in duplicate.

Aphis gossypii = assay: Insecticidal Test on Aphis gossypii; settings: foliar, 144 h
Procedure: (§1) Wet absorbent cotton was laid on glass dishes having an inner diameter of 3 cm, and covered with leaves of cucumber cut into circles of the same diameter, and 4 apterous adults of Aphis gossypii were released. After a day, 10% emulsifiable concentrates (or 10% wettable powders) of compounds of the present invention were diluted with water containing a spreader to obtain 500 ppm solutions, and the solution were sprayed from a rotary spray tower (2.5 mg/cm^2). The dishes were covered with lids and placed in an incubator at 25° C. 6 Days after, dead insects were counted, and the mortality was calculated by using the same equation as in Test Example 1. The test was carried out in duplicate.

Myzus persicae [1] = assay: Insecticidal Test on Myzus persicae; settings: foliar, 144 h
Procedure: as §1, with “Canarium album” for “cucumber”, “Myzus persicae” for “Aphis gossypii”

Nilaparvata lugens = assay: Insecticidal Test on Nilaparvata lugens; settings: 144 h
Procedure: 10% emulsifiable concentrates (or 10% wettable powders) of compounds of the present invention were diluted with water containing a spreader to obtain 500 ppm solutions. Rice sheaths were soaked in the solutions for about 10 seconds, dried in air and put in test tubes. In each tube, five 2nd-instar nymphs of Nilaparvata lugens were released, and the tubes were capped with sponge and placed in an incubator at 25° C. 6 Days after, dead insects were counted, and the mortality (%) (the number of dead insects÷the number of released insects×100) was calculated. The test was carried out in duplicate.

Myzus persicae [2] = assay: Soil Irrigation Test on Myzus persicae; settings: 144 h, 100 ppm solution, 10 ml soil irrigation of cabbage seedlings, greenhouse, 6 days after release of insects
Procedure: 10% emulsifiable concentrates of compounds of the present invention were diluted with tap water to obtain 100 ppm solutions. The soil around the bases of cabbage seedlings (at the 2.5 true leaf stage) planted in plastic cups was irrigated with 10 ml of the solutions, and the cups were placed in a greenhouse. One day after the irrigation, adults of Myzus persicae were released at a ratio of 20 insects per seedling, and the seedlings were incubated in the greenhouse. 6 Days after the release of the insects, living insects were counted, and the control value was calculated from the following equation.
Control value (%)={1−(Cb×Tai)/(Cai×Tb)}×100
Cb: the number of insects in a non-treated area before treatment
Cai: the final number of living insects in a non-treated area
Tb: the number of insects in a treated area before treatment
Tai: the final number of living insects in a treated area

[3] = 500 ppm solution sprayed on kidney bean leaves, adults, 25° C., 5 days after, read-out: mortality
[4] = 500 ppm solution sprayed, apterous adults on cucumber leaf discs, 25° C., 6 days after, read-out: mortality
[5] = 500 ppm solution sprayed, apterous adults on leaf discs, 25° C., 6 days after, read-out: mortality
[6] = 500 ppm solution, rice sheaths soaked, 2nd-instar nymphs, 25° C., 6 days after, read-out: mortality (%)

SMILES	mortality at 500 ppm (Myzus persicae [1]; [5])	mortality at 500 ppm (Nilaparvata lugens; [6])	also measured
CN(C1=NCCS1)c1cn(-c2cccnc2)nc1Cl [3-001, N-{3-chloro-1-(pyridin-3-yl)-1H-pyrazol-4-yl}-N-methyl-4,5-dihydrothiazole-2-amine]	–	–	mortality at 500 ppm (Bemisia argentifolii; [3]): ≥ 90%
CSCCCN(C(C)=O)c1cn(-c2cccnc2)nc1Cl [1-153, N-{3-chloro-1-(pyridin-3-yl)-1H-pyrazol-4-yl}-N-{3-(methylthio)propyl}acetamide]	–	–	mortality at 500 ppm (Aphis gossypii; [4]): ≥ 90%; mortality at 500 ppm (Bemisia argentifolii; [3]): ≥ 90%
C#CCNc1cn(-c2cccnc2)nc1Cl [B-008, 3-chloro-N-(prop-2-ynyl)-1-(pyridin-3-yl)-1H-pyrazole-4-amine]	≥ 90%	≥ 90%	mortality at 500 ppm (Aphis gossypii; [4]): ≥ 90%
CCNc1cnn(C(C)(C)C)c1Cl [H-001, 1-tert-butyl-5-chloro-N-ethyl-1H-pyrazole-4-amine hydrochloride]	≥ 90%	–	–
FC(F)(F)CNc1cn(-c2cccnc2)nc1Cl [B-012, 3-chloro-1-(pyridin-3-yl)-N-(2,2,2-trifluoroethyl)-1H-pyrazole-4-amine]	–	≥ 90%	–
O=C(CCCCl)Nc1cn(-c2cccnc2)nc1Cl [1-131, 4-chloro-N-{3-chloro-1-(pyridin-3-yl)-1H-pyrazol-4-yl}butanamide]	–	≥ 90%	–
CC(C)(C)OC(=O)Nc1cn(-c2cccnc2)nc1Cl [1-046, tert-butyl 3-chloro-1-(pyridin-3-yl)-1H-pyrazol-4-ylcarbamate]	–	–	mortality at 500 ppm (Bemisia argentifolii; [3]): ≥ 90%
CCN(C(=O)OC(C)(C)C)c1cn(-c2cccnc2)nc1Cl [1-056, tert-butyl 3-chloro-1-(pyridin-3-yl)-1H-pyrazol-4-yl(ethyl)carbamate]	–	–	mortality at 500 ppm (Aphis gossypii): ≥ 90%; mortality at 500 ppm (Bemisia argentifolii): ≥ 90%
CC(C)(C)OC(=O)Nc1cnn(C(C)(C)C)c1Cl [F-001, tert-butyl 1-tert-butyl-5-chloro-1H-pyrazol-4-ylcarbamate]	–	≥ 90%	–
CN(C(=O)OC(C)(C)C)c1cn(-c2cccnc2)nc1Cl [1-037, tert-butyl 3-chloro-1-(pyridin-3-yl)-1H-pyrazol-4-yl(methyl)carbamate]	–	–	mortality at 500 ppm (Bemisia argentifolii): ≥ 90%
CSC1CCCN(c2cnn(-c3cccnc3)c2)C1=O (stereo not drawn) [1-028, 3-(methylthio)-1-{1-(pyridin-3-yl)-1H-pyrazol-4-yl}piperidin-2-one]	≥ 90%	≥ 90%	mortality at 500 ppm (Aphis gossypii; [4]): ≥ 90%; mortality at 500 ppm (Bemisia argentifolii; [3]): ≥ 90%
CCN(C(=O)C(CSC)=NOC)c1cn(-c2cccnc2)nc1Cl [1-143, N-{3-chloro-1-(pyridin-3-yl)-1H-pyrazol-4-yl}-N-ethyl-2-(methoxyimino)-3-(methylthio)propanamide]	–	–	pest or weed control at 100 ppm (Myzus persicae [2]): ≥ 90%
CCNc1cn(-c2cccnc2)nc1Cl [A-004, 3-chloro-N-ethyl-1-(pyridin-3-yl)-1H-pyrazole-4-amine dihydrochloride]	≥ 90%	–	–
CSCCC(=O)N(C)c1cn(-c2cccnc2)nc1Cl [1-038, N-{3-chloro-1-(pyridin-3-yl)-1H-pyrazol-4-yl}-N-methyl-3-(methylthio)propanamide]	–	–	pest or weed control at 100 ppm (Myzus persicae [2]): ≥ 90%
CCCNc1cn(-c2cccnc2)nc1Cl [B-006, 3-chloro-N-n-propyl-1-(pyridin-3-yl)-1H-pyrazole-4-amine]	≥ 90%	≥ 90%	mortality at 500 ppm (Aphis gossypii; [4]): ≥ 90%
CN(C(=O)OC(C)(C)C)c1cnn(C(C)(C)C)c1Cl [G-002, tert-butyl 1-tert-butyl-5-chloro-1H-pyrazol-4-yl(methyl)carbamate]	–	–	mortality at 500 ppm (Myzus persicae [1]): ≥ 90%
CCSC(C)C(=NOC)Nc1cn(-c2cccnc2)nc1Cl (stereo not drawn) [1-356, N-{3-chloro-1-(pyridin-3-yl)-1H-pyrazol-4-yl}-2-(ethylthio)-N′-methoxypropanimidamide]	–	≥ 90%	mortality at 500 ppm (Bemisia argentifolii; [3]): ≥ 90%
Cc1nn(-c2cccnc2)cc1N(C)C(=O)OC(C)(C)C [1-012, tert-butyl methyl{3-methyl-1-(pyridin-3-yl)-1H-pyrazol-4-yl}carbamate]	–	–	mortality at 500 ppm (Myzus persicae [1]): ≥ 90%; mortality at 500 ppm (Nilaparvata lugens; in Oryza sativa): ≥ 90%; mortality at 500 ppm (Bemisia argentifolii): ≥ 90%

SMILES	mortality at 500 ppm (Myzus persicae [1]; [5])	mortality at 500 ppm (Nilaparvata lugens; [6])	also measured
CNc1cn(-c2cccnc2)nc1Cl [A-003, 3-chloro-N-methyl-1-(pyridin-3-yl)-1H-pyrazole-4-amine dihydrochloride]	≥ 90%	–	–
O=C1C(Br)CCCN1c1cnn(-c2cccnc2)c1 (stereo not drawn) [1-027, 3-bromo-1-{1-(pyridin-3-yl)-1H-pyrazol-4-yl}piperidin-2-one]	≥ 90%	–	–
CSCCC(=O)N(C)c1cn(-c2cccnc2)nc1C [1-018, N-methyl-N-{3-methyl-1-(pyridin-3-yl)-1H-pyrazol-4-yl}-3-(methylthio)propanamide]	≥ 90%	≥ 90%	–
Cc1c(NC(=O)OC(C)(C)C)cnn1-c1cccnc1 [5-001, tert-butyl 5-methyl-1-(pyridin-3-yl)-1H-pyrazol-4-ylcarbamate]	–	–	mortality at 500 ppm (Aphis gossypii; [4]): ≥ 90%
CCSC(C)C(=O)N(CC)c1cnn(C(C)(C)C)c1Cl (stereo not drawn) [1-001, N-(1-tert-butyl-5-chloro-1H-pyrazol-4-yl)-N-ethyl-2-(ethylthio)propanamide]	≥ 90%	–	mortality at 500 ppm (Aphis gossypii; [4]): ≥ 90%
CCSC(C)C(=O)N(CC)c1c[nH]nc1Cl (stereo not drawn) [J-001, N-(3-chloro-1H-pyrazol-4-yl)-N-ethyl-2-(ethylthio)propanamide]	≥ 90%	–	–
C=CC(=O)N(CC)c1cn(-c2cccnc2)nc1Cl [1-152, N-{3-chloro-1-(pyridin-3-yl)-1H-pyrazol-4-yl}-N-ethylacrylamide]	–	–	mortality at 500 ppm (Bemisia argentifolii; [3]): ≥ 90%
Cc1nn(-c2cccnc2)cc1N [B-009, 3-methyl-1-(pyridin-3-yl)-1H-pyrazole-4-amine]	–	≥ 90%	–
C=C1CCN(c2cn(-c3cccnc3)nc2Cl)C1=O [1-133, 1-{3-chloro-1-(pyridin-3-yl)-1H-pyrazol-4-yl}-3-methylenepyrrolidin-2-one]	≥ 90%	–	–
CSCCCNc1cn(-c2cccnc2)nc1Cl [C-001, 3-chloro-N-{3-(methylthio)propyl}-1-(pyridin-3-yl)-1H-pyrazole-4-amine]	≥ 90%	≥ 90%	–
O=C1CCCN1c1cn(-c2cccnc2)nc1Cl [1-132, 1-{3-chloro-1-(pyridin-3-yl)-1H-pyrazol-4-yl}pyrrolidin-2-one]	≥ 90%	–	–
CCNc1cn(-c2cccnc2)nc1C(F)(F)F [B-018, N-ethyl-1-(pyridin-3-yl)-3-(trifluoromethyl)-1H-pyrazole-4-amine]	≥ 90%	≥ 90%	–
Nc1cn(-c2cccnc2)nc1Cl [B-021, 3-chloro-1-(pyridin-3-yl)-1H-pyrazole-4-amine]	–	≥ 90%	–
CSCCNc1cn(-c2cccnc2)nc1Cl [C-002, 3-chloro-N-{2-(methylthio)ethyl}-1-(pyridin-3-yl)-1H-pyrazole-4-amine]	≥ 90%	≥ 90%	–
CNc1cn(-c2cccnc2)nc1C [A-001, N,3-dimethyl-1-(pyridin-3-yl)-1H-pyrazole-4-amine dihydrochloride]	–	–	mortality at 500 ppm (Aphis gossypii; [4]): ≥ 90%
Cc1nn(-c2cccnc2)cc1N [A-009, 3-methyl-1-(pyridin-3-yl)-1H-pyrazole-4-amine dihydrochloride]	≥ 90%	–	mortality at 500 ppm (Aphis gossypii; [4]): ≥ 90%
CC(C)(C)OC(=O)Nc1cn(-c2cccnc2)nc1Br [1-188, tert-butyl 3-bromo-1-(pyridin-3-yl)-1H-pyrazol-4-ylcarbamate]	–	≥ 90%	mortality at 500 ppm (Bemisia argentifolii; [3]): ≥ 90%
